# Results taken from ChEMBL document CHEMBL1201862, “PubChem BioAssay data set” (2004).
# Activity calls are given as the source filed them.
# How the values were obtained:
# [1] = molecular target: Voltage-dependent T-type calcium channel subunit alpha-1H (Homo sapiens, UniProt O95180); type: functional;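 further: channel activity triggered by adding a high calcium stimulation buffer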
# [2] = MC4R antagonists, dose response, counter-screen for LGR2 antagonist project, cell-based, plate reader, cherry pick (AID 743444); type: functional;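 further: transfected HEK 293 cells stimulated with alpha-MSH peptide; potency of inhibitors of the alpha-MSH evoked signal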
# [3] = HEK293 cell cytotoxicity, dose response, cytotoxicity control, plate reader, cherry-picked samples (AID 743446); type: functional, cell-based
# [4] = A549 cell cytotoxicity, dose response, cytotoxicity control, plate reader, cherry-pick, antagonist series (AID 743412); type: functional, cell-based
# [5] = LGR2 antagonists, dose response, cell-based, HEK293, CRE-luciferase reporter, cherry pick, set 2 (AID 743343); type: functional;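 further: transfected cells were stimulated with diluted bursicon conditioned medium after compound addition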
# [6] = molecular target: T1, High affinity choline transporter 1 (Homo sapiens, UniProt Q9GZV3); test: CHT inhibitors, dose response, cell-based, 10-point CRC, membrane potential dye (AID 588401); type: functional;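 further: membrane potential dye fluorescence of choline-evoked depolarization via CHT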
# T1 sequence (Q9GZV3 whole entry): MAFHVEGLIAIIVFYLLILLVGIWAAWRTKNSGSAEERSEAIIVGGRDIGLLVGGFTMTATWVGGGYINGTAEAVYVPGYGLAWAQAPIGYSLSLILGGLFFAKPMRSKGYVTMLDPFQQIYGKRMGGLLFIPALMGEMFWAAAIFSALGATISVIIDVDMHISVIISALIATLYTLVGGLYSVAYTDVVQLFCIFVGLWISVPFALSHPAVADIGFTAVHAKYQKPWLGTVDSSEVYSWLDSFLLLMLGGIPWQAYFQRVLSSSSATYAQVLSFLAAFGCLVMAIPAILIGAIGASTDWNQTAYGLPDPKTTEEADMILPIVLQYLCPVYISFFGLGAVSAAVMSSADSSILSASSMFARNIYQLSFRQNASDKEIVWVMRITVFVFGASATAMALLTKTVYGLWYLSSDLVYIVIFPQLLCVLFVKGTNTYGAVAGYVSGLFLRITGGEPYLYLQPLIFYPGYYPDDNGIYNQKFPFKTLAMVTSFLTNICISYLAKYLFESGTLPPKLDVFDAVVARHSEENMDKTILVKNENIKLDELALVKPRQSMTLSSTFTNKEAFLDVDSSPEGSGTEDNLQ
# [7] = molecular target: T1, High affinity choline transporter 1; test: CHT inhibitors, dose response, cell-based, 5-point CRC, membrane potential dye (AID 504840); type: functional
# [8] = molecular target: Cytochrome P450 2C9 (Homo sapiens, UniProt P11712)
# [9] = Luminescence Cell-Based Dose Response HTS to Identify Activators of Luciferase Translation or Activity in H4 […] Cells. [Related pubchem assays: 1829 (Project Summary), 1814 (Primary HTS)]; type: functional
# [10] = test system: H4; test: Luminescence Cell-Based Dose Response HTS to Identify Activators of 5'UTR Stem-Loop Driven Prion Protein mRNA Translation in H4 Neuroglioblastoma Cells. [Related pubchem assays: 1829 (Project Summary), 1814 (Primary HTS)]; type: functional; settings: Homo sapiens
# [11] = molecular target: Luciferin 4-monooxygenase (Photinus pyralis, UniProt P08659); test: firefly luciferase enzyme inhibitors, dose response, biochemical, luminescence (AID 1891)
# [12] = Luminescence Cell-Based Dose Confirmation HTS to Identify Inhibitors of Platelet Dense Granule Release. [Related pubchem assays: 1663 (Primary HTS), 1678 (Summary of Project)]; type: functional
# [13] = molecular target: T2, Cytochrome P450 1A2 (Homo sapiens, UniProt P05177);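 further: PubChem cytochrome P450 panel assay, CYP1A2 panel member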
# T2 sequence (P05177 whole entry): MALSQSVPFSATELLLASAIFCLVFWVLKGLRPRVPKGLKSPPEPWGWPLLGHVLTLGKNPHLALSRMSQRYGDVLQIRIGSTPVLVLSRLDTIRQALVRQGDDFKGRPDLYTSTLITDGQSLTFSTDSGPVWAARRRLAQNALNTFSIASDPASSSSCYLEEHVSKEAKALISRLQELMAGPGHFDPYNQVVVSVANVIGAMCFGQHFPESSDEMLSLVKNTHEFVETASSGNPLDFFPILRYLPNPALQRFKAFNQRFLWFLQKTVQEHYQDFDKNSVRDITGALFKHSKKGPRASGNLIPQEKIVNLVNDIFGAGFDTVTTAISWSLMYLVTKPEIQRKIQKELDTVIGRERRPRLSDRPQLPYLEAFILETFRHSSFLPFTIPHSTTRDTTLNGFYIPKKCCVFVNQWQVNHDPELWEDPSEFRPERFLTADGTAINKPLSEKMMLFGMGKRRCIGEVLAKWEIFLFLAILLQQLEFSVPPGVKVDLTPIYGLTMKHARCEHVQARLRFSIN
# [14] = molecular target: Cytochrome P450 2D6 (Homo sapiens, UniProt P10635);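 further: CYP2D6 member of a cytochrome P450 panel assay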
# [15] = Luminescence Cell-Based Dose Response HTS to Identify Inhibitors of 5'UTR Stem-Loop Driven Prion Protein mRNA Translation in H4 Neuroglioblastoma Cells. [Related pubchem assays: 1827 (Project Summary), 1813 (Primary HTS)]; type: functional
# [16] = inhibitors of firefly luciferase expression or activity, dose response, H4 neuroglioma cells, luminescence (AID 1990); type: functional, cell-based
# [17] = inhibitors of SNCA 5'UTR-driven reporter translation, confirmation, H4 neuroglioma cells, luminescence (AID 1988); type: functional, cell-based
# [18] = cells; type: functional, cell-based
# [19] = cells; type: functional, cell-based; remark: listed apart in the source
# [20] = HEp-2 cell cytotoxicity, dose response, cytotoxicity control for RSV inhibitor project, HTS (AID 2410); type: functional; settings: human respiratory syncytial virus
# [21] = microbe, parasite or virus in culture; type: functional; settings: Mycobacterium tuberculosis
# [22] = molecular target: T3, Calpain-2 catalytic subunit (Sus scrofa, UniProt P43367); test: pig calpain II inhibitor potency, dose response, biochemical, fluorogenic peptide substrate (AID 1420); type: functional
# T3 sequence (P43367 whole entry): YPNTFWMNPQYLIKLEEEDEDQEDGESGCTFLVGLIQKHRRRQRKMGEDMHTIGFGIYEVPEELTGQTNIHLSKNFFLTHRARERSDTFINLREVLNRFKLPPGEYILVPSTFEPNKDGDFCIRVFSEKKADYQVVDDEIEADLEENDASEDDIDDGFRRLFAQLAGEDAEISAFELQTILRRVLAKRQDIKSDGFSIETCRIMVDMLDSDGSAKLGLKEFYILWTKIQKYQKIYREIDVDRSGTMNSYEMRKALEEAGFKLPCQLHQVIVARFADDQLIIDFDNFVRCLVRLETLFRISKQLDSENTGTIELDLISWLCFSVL
# [23] = molecular target: T4, Long-chain-fatty-acid--AMP ligase FadD28 (Mycobacterium tuberculosis, UniProt P9WQ59); test: Fluorescence polarization aasay to screen for inhibitors that compete for the binding of FadD28 to a bisubstrate Measured in Biochemical System Using Plate Reader - 2147-01_Inhibitor_Dose_CherryPick_Activity.; type: functional, Mycobacterium tuberculosis H37Rv
# T4 sequence (P9WQ59 whole entry): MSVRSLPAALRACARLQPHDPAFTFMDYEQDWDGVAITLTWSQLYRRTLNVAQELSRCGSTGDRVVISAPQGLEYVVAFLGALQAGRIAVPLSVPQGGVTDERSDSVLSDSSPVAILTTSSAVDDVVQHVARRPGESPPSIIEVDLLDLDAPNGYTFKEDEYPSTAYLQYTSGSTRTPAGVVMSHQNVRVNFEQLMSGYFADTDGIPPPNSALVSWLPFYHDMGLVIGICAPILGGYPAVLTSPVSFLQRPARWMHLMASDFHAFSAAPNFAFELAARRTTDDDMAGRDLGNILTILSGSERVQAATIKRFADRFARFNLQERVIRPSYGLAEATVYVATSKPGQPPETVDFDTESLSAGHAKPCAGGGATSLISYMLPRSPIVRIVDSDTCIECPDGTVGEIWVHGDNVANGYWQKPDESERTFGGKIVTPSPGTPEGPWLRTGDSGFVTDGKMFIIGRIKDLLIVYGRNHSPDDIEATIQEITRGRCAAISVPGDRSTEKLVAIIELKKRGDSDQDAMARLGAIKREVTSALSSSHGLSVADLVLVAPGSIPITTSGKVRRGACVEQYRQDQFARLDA
# [24] = molecular target: T5, Polyadenylate-binding protein 1 (Homo sapiens, UniProt P11940); test: PABP1 MLLE–PAM2 binding inhibitor potency, dose response, biochemical, fluorescence polarization, FITC-PAM2 peptide (AID 602259); type: functional; settings: read-out: IC50_Mean
# [25] = molecular target: T5, Polyadenylate-binding protein 1; test: PABP1 MLLE–PAM2 interaction inhibitors, dose response, miRNA deadenylation inhibitor project, biochemical, fluorescence polarization, Cy5-PAM2 peptide, secondary (AID 602260); type: functional; settings: read-out: IC50_Mean
# [26] = inhibitors of PGC1a acetylation in cells, dose response, cell-based, cherry-picked samples (AID 720514); type: functional;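 further: potency may reflect raised or lowered acetylation signal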
# [27] = molecular target: Cytochrome P450 3A4 (Homo sapiens, UniProt P08684);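 further: CYP3A4 tested as one member of a cytochrome P450 panel screen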
# [28] = inhibitors of intracellular T. cruzi replication, confirmation, NIH3T3 host cells, beta-gal luminescence (AID 2044); type: functional, cell-based;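 further: intracellular parasites grown in NIH/3T3 mouse fibroblasts as host cells; luminescent beta-galactosidase reporter signal from transgenic T. cruzi replicating inside host cells; inhibitors lower the luminescence signal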
# [29] = cytotoxicity toward NIH3T3 fibroblasts, dose response, counter-screen, cell-based, ATP luminescence, mouse fibroblasts (AID 2010); type: functional;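 further: cells exposed to compound for about 90 hours before reading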
# Chain of Voltage-dependent T-type calcium channel subunit alpha-1H (O95180 whole entry): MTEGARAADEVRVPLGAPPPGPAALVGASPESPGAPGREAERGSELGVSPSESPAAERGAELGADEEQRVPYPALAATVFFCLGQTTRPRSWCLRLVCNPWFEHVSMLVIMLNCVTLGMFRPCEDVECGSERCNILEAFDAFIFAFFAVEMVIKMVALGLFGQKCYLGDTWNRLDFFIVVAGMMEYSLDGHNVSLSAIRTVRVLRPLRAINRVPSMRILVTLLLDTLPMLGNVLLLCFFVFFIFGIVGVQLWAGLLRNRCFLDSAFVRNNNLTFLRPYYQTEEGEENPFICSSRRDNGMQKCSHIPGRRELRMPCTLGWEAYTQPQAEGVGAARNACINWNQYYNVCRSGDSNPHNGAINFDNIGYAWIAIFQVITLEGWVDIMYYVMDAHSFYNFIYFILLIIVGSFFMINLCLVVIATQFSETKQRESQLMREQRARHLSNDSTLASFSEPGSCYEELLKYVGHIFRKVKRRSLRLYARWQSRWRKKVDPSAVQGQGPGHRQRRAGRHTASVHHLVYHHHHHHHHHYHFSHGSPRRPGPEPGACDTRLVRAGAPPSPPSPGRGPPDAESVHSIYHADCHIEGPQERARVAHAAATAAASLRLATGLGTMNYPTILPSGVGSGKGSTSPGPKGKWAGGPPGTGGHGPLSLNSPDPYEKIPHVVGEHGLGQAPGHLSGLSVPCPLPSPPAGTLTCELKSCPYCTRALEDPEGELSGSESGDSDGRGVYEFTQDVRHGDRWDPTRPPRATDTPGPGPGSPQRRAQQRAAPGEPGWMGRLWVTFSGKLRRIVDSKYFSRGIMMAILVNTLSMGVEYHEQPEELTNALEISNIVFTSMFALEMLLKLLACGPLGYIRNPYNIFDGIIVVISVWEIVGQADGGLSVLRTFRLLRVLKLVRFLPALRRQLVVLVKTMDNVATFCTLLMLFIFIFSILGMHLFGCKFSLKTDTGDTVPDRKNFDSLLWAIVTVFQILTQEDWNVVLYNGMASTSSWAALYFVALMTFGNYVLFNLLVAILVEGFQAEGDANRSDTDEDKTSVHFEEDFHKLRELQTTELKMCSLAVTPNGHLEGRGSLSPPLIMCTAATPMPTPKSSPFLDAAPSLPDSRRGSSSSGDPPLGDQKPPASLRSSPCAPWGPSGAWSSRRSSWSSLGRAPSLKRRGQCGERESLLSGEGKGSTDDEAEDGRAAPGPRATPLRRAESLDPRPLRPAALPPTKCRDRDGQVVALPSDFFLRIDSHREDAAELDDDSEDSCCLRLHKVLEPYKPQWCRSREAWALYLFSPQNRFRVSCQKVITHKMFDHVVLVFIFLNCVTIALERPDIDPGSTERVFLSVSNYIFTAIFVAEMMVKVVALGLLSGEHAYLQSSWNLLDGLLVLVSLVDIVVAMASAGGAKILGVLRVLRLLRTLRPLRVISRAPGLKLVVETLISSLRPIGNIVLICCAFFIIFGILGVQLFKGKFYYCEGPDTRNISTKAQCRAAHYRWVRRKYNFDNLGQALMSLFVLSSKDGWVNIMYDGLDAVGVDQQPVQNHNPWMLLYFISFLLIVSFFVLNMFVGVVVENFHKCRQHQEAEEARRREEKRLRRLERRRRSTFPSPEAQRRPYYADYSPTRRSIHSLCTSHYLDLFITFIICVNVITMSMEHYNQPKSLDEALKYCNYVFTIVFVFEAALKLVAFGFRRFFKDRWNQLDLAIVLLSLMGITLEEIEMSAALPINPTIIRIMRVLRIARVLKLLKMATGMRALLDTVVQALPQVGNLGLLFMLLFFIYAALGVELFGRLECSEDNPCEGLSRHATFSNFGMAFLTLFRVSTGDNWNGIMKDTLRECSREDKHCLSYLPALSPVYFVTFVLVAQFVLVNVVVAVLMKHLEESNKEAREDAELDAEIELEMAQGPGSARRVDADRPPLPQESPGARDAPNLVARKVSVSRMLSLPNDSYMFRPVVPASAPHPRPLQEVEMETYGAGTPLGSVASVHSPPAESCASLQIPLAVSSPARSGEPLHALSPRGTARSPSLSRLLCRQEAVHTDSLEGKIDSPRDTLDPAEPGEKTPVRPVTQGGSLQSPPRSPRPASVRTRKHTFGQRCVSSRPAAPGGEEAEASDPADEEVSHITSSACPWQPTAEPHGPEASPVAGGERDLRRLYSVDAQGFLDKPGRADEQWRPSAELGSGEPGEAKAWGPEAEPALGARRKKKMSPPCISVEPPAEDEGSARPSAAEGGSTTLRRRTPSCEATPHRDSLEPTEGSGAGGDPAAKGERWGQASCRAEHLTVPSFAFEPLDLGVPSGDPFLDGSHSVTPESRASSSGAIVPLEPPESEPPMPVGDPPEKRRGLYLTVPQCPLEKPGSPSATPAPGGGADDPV
# Chain of Cytochrome P450 2C9 (P11712 whole entry): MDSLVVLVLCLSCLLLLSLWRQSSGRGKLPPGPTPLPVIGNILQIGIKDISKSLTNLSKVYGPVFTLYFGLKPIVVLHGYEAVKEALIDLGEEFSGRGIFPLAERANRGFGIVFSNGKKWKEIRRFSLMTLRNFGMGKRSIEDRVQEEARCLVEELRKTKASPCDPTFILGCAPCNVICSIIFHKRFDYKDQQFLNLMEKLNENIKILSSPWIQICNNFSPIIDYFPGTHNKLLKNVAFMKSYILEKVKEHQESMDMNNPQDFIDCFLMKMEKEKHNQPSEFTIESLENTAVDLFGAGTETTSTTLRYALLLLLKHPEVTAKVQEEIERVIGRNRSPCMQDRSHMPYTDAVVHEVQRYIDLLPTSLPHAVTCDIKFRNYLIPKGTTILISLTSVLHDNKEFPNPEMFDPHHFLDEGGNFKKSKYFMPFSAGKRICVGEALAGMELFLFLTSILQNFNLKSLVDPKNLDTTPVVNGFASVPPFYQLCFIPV
# T5 sequence (P11940 whole entry): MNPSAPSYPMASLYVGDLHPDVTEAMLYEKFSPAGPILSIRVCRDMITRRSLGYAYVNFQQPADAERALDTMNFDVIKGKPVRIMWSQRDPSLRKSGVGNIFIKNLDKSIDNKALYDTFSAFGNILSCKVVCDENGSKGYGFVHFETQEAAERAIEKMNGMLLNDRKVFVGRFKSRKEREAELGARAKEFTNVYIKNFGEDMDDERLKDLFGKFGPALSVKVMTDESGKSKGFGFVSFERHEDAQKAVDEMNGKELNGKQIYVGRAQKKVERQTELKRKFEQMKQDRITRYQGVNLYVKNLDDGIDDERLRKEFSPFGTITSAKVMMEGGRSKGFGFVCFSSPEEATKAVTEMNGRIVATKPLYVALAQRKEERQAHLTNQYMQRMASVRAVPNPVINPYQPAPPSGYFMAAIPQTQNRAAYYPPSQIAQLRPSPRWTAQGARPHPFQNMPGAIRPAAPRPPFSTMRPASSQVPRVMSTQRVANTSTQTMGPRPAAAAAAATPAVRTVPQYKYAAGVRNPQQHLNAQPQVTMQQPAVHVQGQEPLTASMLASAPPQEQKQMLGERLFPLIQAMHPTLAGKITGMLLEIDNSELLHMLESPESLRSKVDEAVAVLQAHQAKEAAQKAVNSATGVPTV
# Chain of Cytochrome P450 2D6 (P10635 whole entry): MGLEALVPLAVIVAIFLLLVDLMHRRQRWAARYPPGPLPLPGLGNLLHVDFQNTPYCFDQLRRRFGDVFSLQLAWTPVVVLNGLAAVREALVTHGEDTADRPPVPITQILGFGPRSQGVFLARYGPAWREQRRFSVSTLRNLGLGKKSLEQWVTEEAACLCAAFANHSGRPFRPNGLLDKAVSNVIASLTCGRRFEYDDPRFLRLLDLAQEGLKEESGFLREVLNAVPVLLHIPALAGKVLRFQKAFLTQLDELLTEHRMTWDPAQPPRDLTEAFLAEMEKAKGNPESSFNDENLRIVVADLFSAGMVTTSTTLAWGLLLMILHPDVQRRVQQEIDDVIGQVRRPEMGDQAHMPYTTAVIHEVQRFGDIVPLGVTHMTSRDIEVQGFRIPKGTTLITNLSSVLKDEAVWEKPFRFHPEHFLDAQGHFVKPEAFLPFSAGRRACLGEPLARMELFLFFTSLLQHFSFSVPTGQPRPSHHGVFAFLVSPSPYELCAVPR
# Chain of Cytochrome P450 3A4 (P08684 whole entry): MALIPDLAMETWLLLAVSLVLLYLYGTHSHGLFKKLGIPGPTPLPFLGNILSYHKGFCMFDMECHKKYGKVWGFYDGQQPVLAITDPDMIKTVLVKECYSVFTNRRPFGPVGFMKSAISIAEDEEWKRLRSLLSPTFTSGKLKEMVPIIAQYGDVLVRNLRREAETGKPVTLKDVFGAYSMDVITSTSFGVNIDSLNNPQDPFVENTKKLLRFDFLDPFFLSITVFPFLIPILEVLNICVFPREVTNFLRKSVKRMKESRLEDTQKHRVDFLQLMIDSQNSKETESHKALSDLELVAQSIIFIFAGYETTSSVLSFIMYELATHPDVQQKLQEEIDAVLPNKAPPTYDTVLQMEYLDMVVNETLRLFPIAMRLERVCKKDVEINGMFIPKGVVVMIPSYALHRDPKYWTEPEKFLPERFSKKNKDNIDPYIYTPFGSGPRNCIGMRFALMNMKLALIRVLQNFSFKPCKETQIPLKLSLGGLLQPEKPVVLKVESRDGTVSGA
# Chain of Luciferin 4-monooxygenase (P08659 whole entry): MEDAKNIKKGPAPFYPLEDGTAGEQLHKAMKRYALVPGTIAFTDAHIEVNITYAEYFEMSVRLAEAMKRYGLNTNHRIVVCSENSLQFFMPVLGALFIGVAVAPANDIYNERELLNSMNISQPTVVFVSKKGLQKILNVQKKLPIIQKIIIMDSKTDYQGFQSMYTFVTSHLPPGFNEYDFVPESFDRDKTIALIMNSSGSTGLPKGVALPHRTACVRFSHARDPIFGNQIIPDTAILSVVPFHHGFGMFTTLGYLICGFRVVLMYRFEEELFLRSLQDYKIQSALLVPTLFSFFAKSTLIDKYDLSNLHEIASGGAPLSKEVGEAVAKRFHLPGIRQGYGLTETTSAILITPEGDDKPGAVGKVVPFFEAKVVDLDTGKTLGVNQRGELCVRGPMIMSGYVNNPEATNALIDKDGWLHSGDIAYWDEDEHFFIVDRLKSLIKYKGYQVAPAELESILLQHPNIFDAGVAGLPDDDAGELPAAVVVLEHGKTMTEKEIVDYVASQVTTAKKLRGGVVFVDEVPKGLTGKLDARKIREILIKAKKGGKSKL
structure (smiles),measurement,setting,value
Cc1ccc(SCCC(=O)NCCSCc2ccccc2C)cc1,EC50,[1],2.87 µM (active)
Cc1cccc(-c2ccc([C@H]3[C@@H](CO)N4CCCCN(C(=O)c5cccnc5)C[C@@H]34)cc2)c1,AC50,[2],23.5 µM (active)
same,AC50,[3],> 52 µM (inactive)
same,AC50,[4],38.4 µM (active)
same,AC50,[5],20.8 µM (active)
Cc1nccn1CC1CCc2c(c3ccccc3n2C)C1=O (stereo not given),IC50,[6],1.35 µM (active)
same,IC50,[7],1.67 µM (active)
CN1C(=C2C(=O)OC(C)(C)OC2=O)Sc2ccccc21,AC50,[8],inconclusive
same,EC50,[9],0.122 µM (active)
same,EC50,[10],> 120 µM (not active)
COc1ccc(-c2cc(-c3ccccc3)no2)cc1,EC50,[11],0.895 µM (active)
same,AC50,[2],3.84 µM (active)
same,AC50,[3],> 52 µM (inactive)
same,EC50,[12],10.3 µM (active)
same,AC50,[4],45.1 µM (active)
same,AC50,[5],5.01 µM (active)
O=C(Nc1ccccc1C(=O)NCCCn1ccnc1)c1ccccc1,IC50,[6],1.5 µM (active)
same,IC50,[7],5.59 µM (active)
CCNC(=O)c1ccc(-n2nc(C(F)(F)F)c3c2CCCC3)cc1,AC50,[13],25.1 µM (inconclusive)
same,AC50,[8],inconclusive
same,AC50,[14],8.91 µM (inconclusive)
same,EC50,[15],41.9 µM (active)
same,EC50,[16],18.1 µM (active)
same,EC50,[17],> 120 µM (not active)
Cc1cccc(N2CCN(c3ccc(N4C(=O)CCCC4=O)cc3[N+](=O)[O-])CC2C)c1 (stereo not given),EC50,[18],> 350 µM (not active)
same,EC50,[19],> 350 µM (not active)
Cc1ccc(N2CCN(C(=O)CCc3nc4ccccc4[nH]3)CC2)c(C)c1,EC50,[1],3.27 µM (active)
same,CC50,[20],13.6 µM (active)
CN(C)c1nc(-c2ccccc2C(F)(F)F)nc2ccccc12,AC50,[8],inconclusive
C/C(=N\NC(=O)Cc1ccc(Br)cc1)c1cccnc1,EC50,[18],36.3 µM (active)
same,EC50,[19],> 350 µM (not active)
COc1cccc(NC(=O)C2CCN(Cc3cnn(-c4ccccc4)c3-n3cccc3)CC2)c1,EC50,[1],2.29 µM (active)
same,CC50,[21],14.6 µM (active)
Cc1cccc(OCCCSc2nc3ccc(C)cc3[nH]2)c1,EC50,[1],3.92 µM (active)
same,IC50,[22],24.9 µM (not active)
CCN(CC)S(=O)(=O)c1cc(C(=O)OCC(=O)Nc2cccc(Br)c2)ccc1F,AC50,[23],6.81 µM (active)
Cc1ccccc1NS(=O)(=O)c1cc(C(=O)Nc2ccccc2-c2ccccc2)ccc1Cl,EC50,[1],3.95 µM (active)
Cc1sc[n+](CC(=O)c2ccc(Br)cc2)c1C,IC50,[6],3.76 µM (active)
same,IC50,[7],8.46 µM (active)
Cn1c(=O)c(C#N)c(-c2ccc(F)cc2)c2cc(C(=O)c3cc(Cl)cc(Cl)c3O)cnc21,IC50,[6],7.08 µM (active)
same,IC50,[7],6.95 µM (active)
COc1cc(Br)cc2cc(C(=O)NCC3CCCO3)c(=O)oc12 (stereo not given),AC50,[13],3.55 µM (inconclusive)
same,AC50,[8],inconclusive
COC(=O)Cn1c(CN2CCN(c3ccc(F)cc3)CC2)nc2c1c(=O)n(C)c(=O)n2C,IC50,[6],1.15 µM (active)
same,IC50,[7],3.59 µM (active)
CCc1nnc(NS(=O)(=O)c2ccc(NC(=O)c3ccc(Br)cc3)cc2)s1,IC50,[6],10 µM (active)
same,IC50,[7],4.45 µM (active)
Cc1ccc(N=C(S)C2=C(O)c3sccc3N(C)S2(=O)=O)cc1,IC50,[24],> 66 µM (inactive)
same,IC50,[25],> 66 µM (inactive)
same,AC50,[23],> 100 µM (inactive)
O=C(O)CCC(=O)Nc1ccc(C(=O)OCC(=O)c2ccc(Cl)cc2Cl)cc1,AC50,[23],> 100 µM (inactive)
COc1ccc(C#Cc2ccc([C@H]3[C@@H](CO)N4CCCCN(C(=O)Nc5ccc(F)cc5)C[C@H]34)cc2)cc1,AC50,[26],13.9 µM (active)
O=C(N/N=C(\Cc1ncc[nH]1)c1ccccc1)c1ccccc1,EC50,[18],> 350 µM (not active)
same,EC50,[15],> 120 µM (not active)
same,EC50,[19],> 350 µM (not active)
same,EC50,[16],12.7 µM (active)
same,EC50,[17],> 120 µM (not active)
Nc1ccc2c3c(cccc13)C(=O)NC2=O,AC50,[8],inconclusive
same,AC50,[27],3.16 µM (inconclusive)
CCN(CC)S(=O)(=O)c1ccc2oc(C(=O)NCc3ccc(F)cc3)c(C)c2c1,EC50,[1],3.18 µM (active)
Cc1nn2c(NCCOCCO)c3c(nc2c1-c1ccccc1)CCCC3,IC50,[6],11.2 µM (active)
same,IC50,[7],3.43 µM (active)
Cc1cccc(-n2nnc(C(=O)NC3CCCc4ccccc43)c2N)c1 (stereo not given),AC50,[13],15.8 µM (inconclusive)
same,AC50,[8],inconclusive
same,AC50,[14],7.94 µM (inconclusive)
same,IC50,[22],7.05 µM (not active)
same,AC50,[27],1.12 µM (inconclusive)
CC(C)(C)n1nnnc1C(c1cccs1)N(Cc1ccc(Cl)cc1)CC1CCCO1 (stereo not given),EC50,[1],8.19 µM (active)
same,EC50,[28],2.41 µM (active)
same,EC50,[29],> 60 µM (not active)
